Reference: patent US12577247B2 (BUGWORKS RESEARCH, INC., priority 2021, dated 2026)

Assays:
[1] = target: T1, A2B receptor (Homo sapiens, UniProt P29275); assay: A2bR antagonism IC50, cAMP TR-FRET in HEK-293 cells, high concentration of adenosine (30 μM); conditions: A2BR IC50 (nM) (@30 μM Adenosine), HEK-293 cells expressing A2B receptor; agonist adenosine 30 μM; 2% HSA; inhibition of cAMP;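 note: compounds preincubated 10 min with cells, then adenosine stimulation 30 min at room temperature in buffer with Rolipram 100 µM and EHNA 30 µM, TR-FRET read after 1 h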
T1 sequence (P29275 1-332): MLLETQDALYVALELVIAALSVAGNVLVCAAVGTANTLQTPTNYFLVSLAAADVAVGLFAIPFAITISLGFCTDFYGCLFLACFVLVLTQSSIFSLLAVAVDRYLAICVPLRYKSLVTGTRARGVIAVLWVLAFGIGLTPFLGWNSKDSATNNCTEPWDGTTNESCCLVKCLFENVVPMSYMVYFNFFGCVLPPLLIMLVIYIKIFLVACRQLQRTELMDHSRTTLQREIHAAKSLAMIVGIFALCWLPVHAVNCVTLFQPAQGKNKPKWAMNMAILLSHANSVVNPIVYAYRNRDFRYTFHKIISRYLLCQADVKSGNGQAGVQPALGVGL
Method: A Time-Resolved Fluorescence Energy Transfer (TR-FRET) assay was used to show the inhibition of this cAMP production in HEK cells upon treatment with compounds of the Formula I of the present disclosure.
HEK-293 cells expressing A2A receptor (#ES-011-C) or A2B receptor (#ES 013-C) were obtained from PerkinElmer. Cells were maintained in DMEM medium supplemented with 10% FBS and 200 μg/mL of G418 at 37° C. and 5% CO2. The cells were cultured in antibiotic free medium for a period of 16-20 hours prior to the assay. All subsequent steps of the assay are performed at room temperature (22-24° C.). […] About 1500 cells per well were pre-incubated for 10 minutes with the compounds of the present invention before adding the agonist Adenosine at a high concentration (30 μM) for a total stimulation time of 30 minutes. […] The assays were conducted in a stimulation buffer containing 1×DMEM, 5 mM HEPES, 2% Human serum albumin (HSA), 100 μM Rolipram and 30 μM erythro-9-(2-hydroxy-3-nonyl) adenine (EHNA). Serial dilutions of compounds were made in stimulation buffer to achieve a final concentration of high micromolar in a reaction volume of 10 μL. The total reaction volume was 10 μL (5 μL of cells, 2.5 μL of antagonist and 2.5 μL of agonist). […] The stimulation was ended, and the reaction completed by adding 5 μL of 4× Eu-cAMP tracer working solution and 5 μL of 4× ULight-anti-cAMP working solution. The TR FRET signal was measured after 1-hour incubation using a Tecan M1000 or a PerkinElmer Victor Nivo plate reader.

[2] = target: T2, A2A receptor (Homo sapiens, UniProt P29274); assay: A2aR antagonism IC50, cAMP TR-FRET in HEK-293 cells, high concentration of adenosine (30 μM); type: cell-based; conditions: HEK-293 cells expressing A2A receptor; agonist adenosine 30 μM; 2% HSA; inhibition of cAMP; read-out: A2AR IC50 (nM) (@30 μM Adenosine);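 note: compounds added 10 min before adenosine, then 30 min stimulation at room temperature in buffer with 100 µM rolipram and 30 µM EHNA, signal read 1 h after detection reagents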
T2 construct: host or cells: HEK-293
T2 sequence (P29274 whole entry): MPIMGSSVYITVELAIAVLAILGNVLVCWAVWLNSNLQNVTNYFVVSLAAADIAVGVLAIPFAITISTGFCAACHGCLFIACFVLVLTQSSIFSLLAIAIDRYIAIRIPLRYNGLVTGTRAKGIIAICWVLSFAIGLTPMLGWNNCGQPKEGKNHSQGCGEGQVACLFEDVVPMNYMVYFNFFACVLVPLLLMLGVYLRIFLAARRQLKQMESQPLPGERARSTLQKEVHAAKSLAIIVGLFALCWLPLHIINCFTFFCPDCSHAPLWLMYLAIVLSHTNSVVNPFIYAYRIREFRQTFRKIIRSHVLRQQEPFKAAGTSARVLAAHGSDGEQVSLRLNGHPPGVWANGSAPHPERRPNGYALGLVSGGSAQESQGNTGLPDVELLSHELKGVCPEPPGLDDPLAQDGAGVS

IC50 [1] [nM] | IC50 [2] [nM] | SMILES
2820 | 158 | CCc1cnn2c(N)c(C#N)c(NCCc3ccn(C4(CO)CC4)n3)nc12 [Example 71, 7-amino-3-ethyl-5-((2-(1-(1-(hydroxymethyl)cyclopropyl)-1H-pyrazol-3-yl)ethyl)amino) pyrazolo[1,5-a] pyrimidine-6-carbonitrile]
– | 248 | Cc1nn2c(N)c(C#N)c(NCCc3ccn(C4COCC4CO)n3)nc2c1C (racemic) [Example 132, (+−)-7-amino-5-((2-(1-(4-(hydroxymethyl)tetrahydrofuran-3-yl)-1H-pyrazol-3-yl)ethyl)amino)-2,3-dimethylpyrazolo[1,5-a]pyrimidine-6-carbonitrile]
> 15000 | 2160 | CCCc1c(C)nn2c(N)c(C#N)c(NCCc3ccn(C4CCC4CO)n3)nc12 (single isomer, unassigned; (+)) [Example 165a, (+)-7-amino-5-((2-(1-(2-(hydroxymethyl)cyclobutyl)-1H-pyrazol-3-yl)ethyl)amino)-2-methyl-3-propylpyrazolo[1,5-a]pyrimidine-6-carbonitrile]
1630 | 1150 | CCc1c(C)nn2c(N)c(C#N)c(NCCc3cccc(OCCO)n3)nc12 [Example 150, 7-amino-3-ethyl-5-((2-(6-(2-hydroxyethoxy)pyridin-2-yl)ethyl)amino)-2-methylpyrazolo[1,5-a] pyrimidine-6-carbonitrile]
1300 | 286 | CCc1c(C)nn2c(N)c(C#N)c(NCCc3cccn(C)c3=O)nc12 [Example 88, 7-amino-3-ethyl-2-methyl-5-((2-(1-methyl-2-oxo-1,2-dihydropyridin-3-yl)ethyl)amino) pyrazolo[1,5-a]pyrimidine-6-carbonitrile]
650 | 90 | CCc1c(C)nn2c(N)c(C#N)c(NCCc3cc(C)n(C4COCC4CO)n3)nc12 (single isomer, unassigned; (+)) [Example 168]
1340 | 667 | CCc1c(C)nn2c(N)c(C#N)c(NCCc3cccn(CC[S+](C)[O-])c3=O)nc12 (racemic) [Example 143, Racemic (+−)7-amino-3-ethyl-2-methyl-5-((2-(1-(2-(methylsulfinyl)ethyl)-2-oxo-1,2-dihydropyridin-3-yl)ethyl)amino) pyrazolo[1,5-a]pyrimidine-6-carbonitrile]
5880 | 280 | Cc1nn2c(N)c(C#N)c(NCCc3ccn(C4CCC4CO)n3)nc2c1Br (centres unmarked) [Example 130, 7-amino-3-bromo-5-((2-(1-(2-(hydroxymethyl)cyclobutyl)-1H-pyrazol-3-yl)ethyl)amino)-2-methylpyrazolo[1,5-a]pyrimidine-6-carbonitrile]
> 15000 | 6020 | Cc1cncc(CCNc2nc3c(C)c(C)nn3c(N)c2C#N)n1 [Example 140, 7-amino-2,3-dimethyl-5-((2-(6-methylpyrazin-2-yl)ethyl)amino) pyrazolo[1,5-a]pyrimidine-6-carbonitrile]
1760 | 80 | Cc1nn2c(N)c(C#N)c(NCCc3cccn(C)c3=O)nc2c1Cl [Example 87, 7-amino-3-chloro-2-methyl-5-((2-(1-methyl-2-oxo-1,2-dihydropyridin 3-yl)ethyl)amino) pyrazolo[1,5-a]pyrimidine-6-carbonitrile]
> 15000 | > 15000 | CCc1c(C)nn2c(N)c(C#N)c(NCCc3ccnn3CCCO)nc12 [Example 110, 7-amino-3-ethyl-5-((2-(1-(3-hydroxypropyl)-1H-pyrazol-5-yl)ethyl)amino)-2-methylpyrazolo[1,5-a]pyrimidine-6-carbonitrile]
6070 | 136 | Cc1nn2c(N)c(C#N)c(NCCc3ccn(C4COCC4CO)n3)nc2c1C (single isomer, unassigned; (-)) [Example 133b, (−)-7-amino-5-((2-(1-(4-(hydroxymethyl)tetrahydrofuran-3-yl)-1H-pyrazol-3-yl)ethyl)amino)-2,3-dimethylpyrazolo[1,5-a]pyrimidine-6-carbonitrile]
1830 | 77 | Cc1nn2c(N)c(C#N)c(NCCc3cccc(CNCCO)n3)nc2c1Cl [Example 90, 7-amino-3-chloro-5-((2-(6-(((2-hydroxyethyl)amino)methyl)pyridin-2-yl)ethyl)amino)-2-methylpyrazolo[1,5-a]pyrimidine-6-carbonitrile]
3550 | 1890 | CCc1c(C)nn2c(N)c(C#N)c(NCCc3cccn(CCN)c3=O)nc12 [Example 126, 7-amino-5-((2-(1-(2-aminoethyl)-2-oxo-1,2-dihydropyridin-3-yl)ethyl)amino)-3-ethyl-2-methylpyrazolo[1,5-a] pyrimidine-6-carbonitrile]
1190 | 195 | CCc1c(C)nn2c(N)c(C#N)c(NCCc3cccn(CCCSC)c3=O)nc12 [Example 153, 7-amino-3-ethyl-2-methyl-5-((2-(1-(3-(methylthio)propyl)-2-oxo-1,2-dihydropyridin-3-yl)ethyl)amino)pyrazolo[1,5-a]pyrimidine-6-carbonitrile]
2740 | 161 | CCc1c(C)nn2c(N)c(C#N)c(NCCc3ccn(C4(CCN)CC4)n3)nc12 [Example 148, 7-amino-5-((2-(1-(1-(2-aminoethyl)cyclopropyl)-1H-pyrazol-3-yl)ethyl)amino)-3-ethyl-2-methylpyrazolo[1,5-a] pyrimidine-6-carbonitrile]
8630 | 529 | CCc1cccc(CCNc2nc3c(Cl)c(C)nn3c(N)c2C#N)n1 [Example 120, 7-amino-3-chloro-5-((2-(6-ethylpyridin-2-yl)ethyl)amino)-2-methylpyrazolo[1,5-a]pyrimidine-6-carbonitrile]
1020 | 457 | CCc1c(C)nn2c(N)c(C#N)c(NCCc3cccc(C(C)O)n3)nc12 (single isomer, unassigned; (-)) [Example 159b, (−)-7-amino-3-ethyl-5-((2-(6-(1-hydroxyethyl)pyridine-2-yl)ethyl)amino)-2-methylpyrazolo[1,5-a]pyrimidine-6-carbonitrile]
1660 | 141 | CCc1c(C)nn2c(N)c(C#N)c(NCCc3cccn(CCSC)c3=O)nc12 [Example 142, 7-amino-3-ethyl-2-methyl-5-((2-(1-(2-(methylthio)ethyl)-2-oxo-1,2-dihydropyridin-3-yl)ethyl)amino)pyrazolo[1,5-a]pyrimidine-6-carbonitrile]
2730 | 1230 | CCc1c(C)nn2c(N)c(C#N)c(NCCc3ccn(CCC[S+](C)[O-])n3)nc12 (single isomer, unassigned; (+)) [Example 162b, (+)-7-amino-3-ethyl-2-methyl-5-((2-(1-(3-(methylsulfinyl)propyl)-1H-pyrazol-3-yl)ethyl)amino)pyrazolo[1,5-a]pyrimidine-6-carbonitrile]
3870 | – | Cc1nn2c(N)c(C#N)c(NCCc3cccc(CNCCO)n3)nc2c1C [Example 105, 7-amino-5-((2-(6-(((2-hydroxyethyl)amino)methyl)pyridin-2-yl)ethyl)amino)-2,3-dimethylpyrazolo[1,5-a]pyrimidine-6-carbonitrile]
– | 456 | CCc1c(C)nn2c(N)c(C#N)c(NCCc3cccc(CNCCOC)n3)nc12 [Example 96, 7-amino-3-ethyl-5-((2-(6-(((2-methoxyethyl)amino)methyl)321yridine-2-yl)ethyl)amino)-2-methylpyrazolo[1,5-a]pyrimidine-6-carbonitrile]
